{"source": "PubChem BioAssay (NCI)", "experiment_in_all_cases": "DTP human tumour cell line panel, 384-well format", "key": {"NCI-H226 lung": {"tested_on": "NCI-H226 lung"}, "NCI-H23 lung": {"tested_on": "NCI-H23 lung"}, "NCI-H322M lung": {"tested_on": "NCI-H322M lung"}, "NCI-H460 NSCLC": {"tested_on": "NCI-H460 NSCLC"}, "NCI-H522 lung": {"tested_on": "NCI-H522 lung"}, "NCI/ADR-RES ovarian": {"tested_on": "NCI/ADR-RES ovarian"}, "OVCAR-3 ovarian": {"tested_on": "OVCAR-3 ovarian"}, "OVCAR-4 ovarian": {"tested_on": "OVCAR-4 ovarian"}, "OVCAR-5 ovarian": {"tested_on": "OVCAR-5 ovarian"}, "OVCAR-8 ovarian": {"tested_on": "OVCAR-8 ovarian"}, "PC-3 prostate": {"tested_on": "PC-3 prostate"}, "RPMI-8226 leukemia": {"tested_on": "RPMI-8226 leukemia"}, "RXF 393 renal": {"tested_on": "RXF 393 renal"}, "SF-268 CNS": {"tested_on": "SF-268 CNS"}, "SF-295 CNS": {"tested_on": "SF-295 CNS"}, "SF-539 CNS": {"tested_on": "SF-539 CNS"}, "SK-MEL-28 melanoma": {"tested_on": "SK-MEL-28 melanoma"}, "SK-MEL-5 melanoma": {"tested_on": "SK-MEL-5 melanoma"}, "SK-OV-3 ovarian": {"tested_on": "SK-OV-3 ovarian"}, "SN12C renal": {"tested_on": "SN12C renal"}, "SNB-19 CNS": {"tested_on": "SNB-19 CNS"}, "SNB-75 CNS": {"tested_on": "SNB-75 CNS"}, "SR leukemia": {"tested_on": "SR leukemia"}, "SW-620 colon": {"tested_on": "SW-620 colon"}, "T-47D breast": {"tested_on": "T-47D breast"}, "TK-10 renal": {"tested_on": "TK-10 renal"}, "U251 glioblastoma": {"tested_on": "U251 glioblastoma"}, "UACC-257 melanoma": {"tested_on": "UACC-257 melanoma"}, "UO-31 renal": {"tested_on": "UO-31 renal"}}, "note": "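GI50 marks 50% less growth. At the TGI there is no net growth.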", "data": [{"smiles": "O=C(NO)c1ccc(CN(c2cnccn2)c2cnccn2)cc1", "values": [{"measurement": "GI50", "setting": "NCI-H226 lung", "value": 12.4, "unit": "µM"}, {"measurement": "TGI", "setting": "NCI-H226 lung", "value": 25.1, "unit": "µM"}, {"measurement": "GI50", "setting": "NCI-H23 lung", "value": 2010, "unit": "nM"}, {"measurement": "TGI", "setting": "NCI-H23 lung", "value": 3.96, "unit": "µM"}, {"measurement": "GI50", "setting": "NCI-H322M lung", "value": 9.66, "unit": "µM"}, {"measurement": "TGI", "setting": "NCI-H322M lung", "value": 22.4, "unit": "µM"}, {"measurement": "GI50", "setting": "NCI-H460 NSCLC", "value": 10.2, "unit": "µM"}, {"measurement": "TGI", "setting": "NCI-H460 NSCLC", "value": 22.1, "unit": "µM"}, {"measurement": "GI50", "setting": "NCI-H522 lung", "value": 4.84, "unit": "µM"}, {"measurement": "TGI", "setting": "NCI-H522 lung", "value": 16.2, "unit": "µM"}, {"measurement": "GI50", "setting": "NCI/ADR-RES ovarian", "value": 4.36, "unit": "µM"}, {"measurement": "TGI", "setting": "NCI/ADR-RES ovarian", "value": 15.1, "unit": "µM"}, {"measurement": "GI50", "setting": "OVCAR-3 ovarian", "value": 3.27, "unit": "µM"}, {"measurement": "TGI", "setting": "OVCAR-3 ovarian", "value": 12.2, "unit": "µM"}, {"measurement": "GI50", "setting": "OVCAR-4 ovarian", "value": 5.94, "unit": "µM"}, {"measurement": "TGI", "setting": "OVCAR-4 ovarian", "value": 19, "unit": "µM"}, {"measurement": "GI50", "setting": "OVCAR-5 ovarian", "value": 11, "unit": "µM"}, {"measurement": "TGI", "setting": "OVCAR-5 ovarian", "value": 31.2, "unit": "µM"}, {"measurement": "GI50", "setting": "OVCAR-8 ovarian", "value": 1810, "unit": "nM"}, {"measurement": "TGI", "setting": "OVCAR-8 ovarian", "value": 3.86, "unit": "µM"}, {"measurement": "GI50", "setting": "PC-3 prostate", "value": 7.66, "unit": "µM"}, {"measurement": "TGI", "setting": "PC-3 prostate", "value": 20.9, "unit": "µM"}, {"measurement": "GI50", "setting": "RPMI-8226 leukemia", "value": 1350, "unit": "nM"}, {"measurement": "TGI", "setting": "RPMI-8226 leukemia", "value": 2810, "unit": "nM"}, {"measurement": "GI50", "setting": "RXF 393 renal", "value": 3.83, "unit": "µM"}, {"measurement": "TGI", "setting": "RXF 393 renal", "value": 14.2, "unit": "µM"}, {"measurement": "GI50", "setting": "SF-268 CNS", "value": 8.01, "unit": "µM"}, {"measurement": "TGI", "setting": "SF-268 CNS", "value": 20.9, "unit": "µM"}, {"measurement": "GI50", "setting": "SF-295 CNS", "value": 2620, "unit": "nM"}, {"measurement": "TGI", "setting": "SF-295 CNS", "value": 6.48, "unit": "µM"}, {"measurement": "GI50", "setting": "SF-539 CNS", "value": 2950, "unit": "nM"}, {"measurement": "TGI", "setting": "SF-539 CNS", "value": 10.6, "unit": "µM"}, {"measurement": "GI50", "setting": "SK-MEL-28 melanoma", "value": 2930, "unit": "nM"}, {"measurement": "TGI", "setting": "SK-MEL-28 melanoma", "value": 7.33, "unit": "µM"}, {"measurement": "GI50", "setting": "SK-MEL-5 melanoma", "value": 4.27, "unit": "µM"}, {"measurement": "TGI", "setting": "SK-MEL-5 melanoma", "value": 12.8, "unit": "µM"}, {"measurement": "GI50", "setting": "SK-OV-3 ovarian", "value": 12.2, "unit": "µM"}, {"measurement": "TGI", "setting": "SK-OV-3 ovarian", "value": 25.1, "unit": "µM"}, {"measurement": "GI50", "setting": "SN12C renal", "value": 14.7, "unit": "µM"}, {"measurement": "TGI", "setting": "SN12C renal", "value": 28.1, "unit": "µM"}, {"measurement": "GI50", "setting": "SNB-19 CNS", "value": 13, "unit": "µM"}, {"measurement": "TGI", "setting": "SNB-19 CNS", "value": 26.6, "unit": "µM"}, {"measurement": "GI50", "setting": "SNB-75 CNS", "value": 5.98, "unit": "µM"}, {"measurement": "TGI", "setting": "SNB-75 CNS", "value": 18.2, "unit": "µM"}, {"measurement": "GI50", "setting": "SR leukemia", "value": 1770, "unit": "nM"}, {"measurement": "TGI", "setting": "SR leukemia", "value": 3.87, "unit": "µM"}, {"measurement": "GI50", "setting": "SW-620 colon", "value": 10.6, "unit": "µM"}, {"measurement": "TGI", "setting": "SW-620 colon", "value": 22.7, "unit": "µM"}, {"measurement": "GI50", "setting": "T-47D breast", "value": 5.59, "unit": "µM"}, {"measurement": "TGI", "setting": "T-47D breast", "value": 17.6, "unit": "µM"}, {"measurement": "GI50", "setting": "TK-10 renal", "value": 12.9, "unit": "µM"}, {"measurement": "TGI", "setting": "TK-10 renal", "value": 26.4, "unit": "µM"}, {"measurement": "GI50", "setting": "U251 glioblastoma", "value": 4.7, "unit": "µM"}, {"measurement": "TGI", "setting": "U251 glioblastoma", "value": 15.6, "unit": "µM"}, {"measurement": "GI50", "setting": "UACC-257 melanoma", "value": 5.02, "unit": "µM"}, {"measurement": "TGI", "setting": "UACC-257 melanoma", "value": 17.8, "unit": "µM"}, {"measurement": "GI50", "setting": "UO-31 renal", "value": 13.5, "unit": "µM"}, {"measurement": "TGI", "setting": "UO-31 renal", "value": 26.6, "unit": "µM"}]}]}
